Laboratory results reported in patent US8841269B2, “Polynucleotides for use in treating and diagnosing cancers” (Creighton University, priority 2010, dated 2014).
Entries after “also recorded” stand apart in the source; their conditions may differ.

Experiments:
[1] = Real-time PCR of let-7 levels after mimic transfection (Example 2); format: cell-based, human
Experimental: To analyze mature let-7 miRNAs with real-time PCR, total RNA was isolated from the cell lines using mirVana miRNA isolation kit (Ambion Inc., Austin, Tex.) or from FFPE tissues using the miRNeasy FFPE Kit (Qiagen, Valencia, Calif.) following the manufacturer's instructions. We collected FFPE breast tissues from 13 benign, 16 ductal carcinomas in situ (DCIS), and 15 invasive ductal carcinomas (IDC), all of which were prepared as 50 μm thick sheets. The benign breast tissues were from surgical resections of abnormal breast lesions with non-neoplastic phenotypes such as calcification, fibrocystic changes or stromal fibrosis. cDNA was synthesized using 100 ng total RNA in a reaction volume of 15 μL and following the protocol of Taqman microRNA reverse transcription kit (Applied Biosystems, Foster City, Calif.). After 15 dilution, 9 μl, cDNA mixture was used for real-time PCR in 20 μL reaction volume, including 10 μL of TaqMan universal PCR master mix (no ampErase UNG) and 1 μL Taqman probe (Applied Biosystems, Foster City, Calif.). Real-time PCR was performed on 7900HT realtime PCR instrument (Applied Biosystems). PCR was initiated by two holds of 52° C. 2 min and 94° C. 10 min each, followed by 40 cycles of 15 s at 95° C. and 1 min at 60° C. The level of each miRNA was expressed following the 2^−ΔCt method using the small nuclear RNA RNU48 as the internal reference.
Let-7 miRNA or negative control #1 miRNA of 60 nmol/L (Ambion, Austin, Tex.) was transfected into cells with the siPORT NeoFX reagent (Ambion, Austin, Tex.) following the manufacturer's protocol.

[2] = tested on: estrogen response element (ERE) construct; assay: ERE luciferase assay (2 ERE-tk-Luc), genomic estrogen pathway in MCF7; format: cell-based, human; conditions: for ERE luciferase activity: MCF7, p2 ERE-tk-Luc, 10 nmol/L E2 12 hours, p<0.01; for luciferase activity of the ERE construct: MCF7 cell line
Experimental: For checking on the genomic estrogen pathway, 10^5 MCF7 cells were first seeded into each well on a 24-well plate and cultured in IMEM with 2.5% charcoal-stripped FBS for 2 days. Then the cells were transfected as described above except that the estrogen response element (ERE) construct (2 ERE-tk-Luc; obtained from Katarine Pettersson, Karolinska Institute, Stockholm) replaced the pMIR-REPORT plasmid for 1 day. After stimulation with 10 nmol/L E2 for 12 hours, luciferase activity was measured as described above.

[3] = tested on: 3′ UTR of human ER-α36 gene; assay: Luciferase reporter assay, ER-α36 3′ UTR let-7 binding site in pMIR-REPORT; format: cell-based; conditions: MCF7 cells; for luciferase activity, ER-α36 3′-UTR binding site: 60 nmol/L mimics
Source text: A fragment of the 3′ UTR of human ER-α36 gene, which harbors the putative let-7 target sites, was synthesized (IDT, Coralville, Iowa). With the SpeI and HindIII restriction sites at the ends, respectively, the sense strand is 5′-ctag[…] (SEQ ID NO:41) and the antisense strand is 5′-agct[…] (SEQ ID NO:42). The sense and antisense oligonucleotides were annealed and ligated into the SpeI/HindIII sites of the pMIR-REPORT luciferase vector (Ambion, Austin, Tex.). The sequences were verified by DNA sequencing. Transfection was performed in 24-well plate using Lipofectamine 2000 (Invitrogen). Let-7 mimics, anti-let-7 inhibitors, or negative controls were transfected with 0.25 μg luciferase construct and 0.25 μg β-galactosidase plasmid (Ambion) to check transfection efficiency. Twenty-four hours post-transfection, the luciferase activity was measured using Dual-Glo Luciferase Assay System (Promega, Fitchburg, Wis.) in Veritas Microplate Luminometer (Turner Biosystems, Sunnyvale, Calif.).

cyclin D1 = assay: Immunoblot of cyclin D1 after transfection in MCF7; format: cell-based, human; conditions: MCF7, mimics; for expression of cyclin D1 (protein): after 2 days; for protein expression of cyclin D1: after 6 days
Source text: (§1) Immunoblot analysis. For Western blot in FFPE tissues, an established method was followed (Addis et al., 2009, Proteomics 9:3815-23). For MCF7 cell line, let-7 mimics and negative control miRNA (60 nmol/L), or let-7 inhibitors and anti-miR negative control (60 nmol/L) were transfected following the protocol of siPORT NeoFX Transfection Agent (Applied Biosystems), The Western blot procedure was described before (Zhang et al., 2010, J Proteome Res., 9(2):980-989). Antibody information is as follows: ER-α, RB-9016-P1, Thermoscientific; Cyclin D1, sc-8396, Santa Cruz; pS2, ab80782 was Abeam; β-Actin, sc-69879, Santa Cruz.

[4] = tested on: ER-α negative MDA-MB-231 cell line; assay: MTT cell proliferation assay in MDA-MB-231; format: cell-based, human; conditions: MDA-MB-231, DMEM with 10% FBS
Experimental: FIG. 10. The effects of let-7a, let-7b, and let-7i miRNAs on cell proliferation in ER-α negative MDA-MB-231 cell line. Cancer cell proliferation was monitored by MTT assays in the same way as in MCF7 cell line except MDA-MB-231 cells were grown in DMEM with 10% FBS.
MTT cell proliferation assay. MCF7 cells were transfected with let-7 mimics or negative controls (60 nmol/L) in normal growth medium for 1 day, or in medium with 2.5% charcoal-stripped FBS for 2 days to exhaust endogenous estrogen, following the protocol of siPORT NeoFX Transfection Agent (Applied Biosystems). For the experiment in normal growth medium, 10^4 cells in the volume of 100 μL were seeded in a 96-well plate for 12 hours and assay lasted for another 4 days. For experiments in E2 free medium, 1.5 10^4 cells were seeded in a 96-well plate for 12 hours and then exposed to 10 nmol/L E2, or not, for up to 4 days. For both experiments, each treatment had 12 replicates on the plate. The cells were then incubated in 0.83 mg/mL 3-[4,5-dimethylthiazol-2-yl]-2,5-diphenyltetrazolium bromide (MTT) in growth medium at 37° C. for 4 h and lysed in 100 μL of DMSO at room temperature for 15 min. The absorbance in each well was measured at 490 nm by an ELx800 Absorbance Microplate Reader (Biotek). Cell proliferation was normalized to day 0.

MCF7 cells = assay: Annexin-V binding assay for apoptosis in MCF7; format: cell-based, human
Experimental: Annexin-V binding assay for apoptosis. […] The staining followed the protocol of FITC Annexin V Apoptosis Detection Kit I (Cat #556547, BD Biosciences). Cell populations were analyzed with a BD FACSAria™ flow cytometer. Approximately 20,000 cells were counted for each sample.

ER-α = assay: Immunoblot of ER-α after transfection in MCF7; format: cell-based, human; conditions: MCF7, mimics 60 nmol/L
Source text: as §1

pS2 = assay: Immunoblot of pS2 after transfection in MCF7; format: cell-based, human; conditions: MCF7, mimics; for expression of pS2 (protein): after 2 days; for protein expression of pS2: after 6 days
Source text: as §1

[5] = MCF7-Tam, 6 days after transfection, vs negative control
[6] = MCF7-Tam, two days after transfection
[7] = MDA-MB-231, after 2 days, vs negative control cells

Substance	increase of let-7 level after mimic transfection [1, 5] [fold]	increase of let-7 level after mimic transfection [1, 6] [fold]	increase of let-7 level after mimic transfection [1, 7] [fold]	ERE luciferase activity [2]	luciferase activity of the ERE construct [2]	luciferase activity, ER-α36 binding site [3]	luciferase activity, mutated ER-α36 binding sequence [3]	luciferase activity, ER-α36 3′-UTR binding site [3]	expression of cyclin D1 (protein) (cyclin D1)	protein expression of cyclin D1 (cyclin D1)	cell growth (MTT) [4]	apoptotic rate (MCF7 cells; MCF7, after 6 days) [%]	apoptotic rate (MCF7 cells; MCF7, three days post-transfection) [%]	expression of ER-α (protein) (ER-α; after 2 days)	expression of ER-α (protein) (ER-α; after 6 days)	expression of pS2 (protein) (pS2)	protein expression of pS2 (pS2)	effect on apoptosis (MCF7 cells; MCF7, after either 3 days or 6 days)
let-7b: let-7b miRNA (mimic), 3′-UUGGUGUGUUGGAUGAUGGAGU-5′ (SEQ ID NO:8) (chemistry not given here; listed 3' to 5')	100	~600	~400	about 40 % of negative control	inhibit the luciferase activity of the ERE construct	significantly inhibited the luciferase activity	abrogated the inhibitory effects; also recorded: did not show inhibition	about 60 % of the activity in the control cells	significantly inhibited	significantly decreased	None of three miRNAs significantly inhibited cell growth	28.6	7	significantly depressed the expression of ER-α	dramatically down-regulated the expression of ER-α	significantly inhibited	significantly suppressed	
let-7i: let-7i miRNA (mimic), 3′-UUGUCGUGUUUGAUGAUGGAGU-5′ (SEQ ID NO:14) (chemistry not given here; listed 3' to 5')	100	~300	~200	about 60 % of negative control	inhibit the luciferase activity of the ERE construct	significantly inhibited the luciferase activity	abrogated the inhibitory effects; also recorded: did not show inhibition	about 60 % of the activity in the control cells	significantly inhibited	modest effect	None of three miRNAs significantly inhibited cell growth			significantly depressed the expression of ER-α	dramatically down-regulated the expression of ER-α	significantly inhibited	significantly suppressed	not significant
